Experiment [1] relates to HeLa cervical adenocarcinoma. In words: Cell Proliferation Inhibition Assay (14C-thymidine incorporation), HeLa.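 Also: test compound in DMSO added to cells seeded in scintillating 96-well plates, DMSO-only wells as control, uptake of methyl 14C-thymidine into new DNA counted.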 It counts as cell-based. The settings on record: Homo sapiens, HeLa, HeLa cells. On the technique in general: Dividing cells build labelled thymidine or BrdU into new DNA.
Another experiment has as its target T1, RET (Homo sapiens, UniProt P07949).
T1 construct: polyhistidine (N)
T1 sequence (P07949 658-1114 limits assumed): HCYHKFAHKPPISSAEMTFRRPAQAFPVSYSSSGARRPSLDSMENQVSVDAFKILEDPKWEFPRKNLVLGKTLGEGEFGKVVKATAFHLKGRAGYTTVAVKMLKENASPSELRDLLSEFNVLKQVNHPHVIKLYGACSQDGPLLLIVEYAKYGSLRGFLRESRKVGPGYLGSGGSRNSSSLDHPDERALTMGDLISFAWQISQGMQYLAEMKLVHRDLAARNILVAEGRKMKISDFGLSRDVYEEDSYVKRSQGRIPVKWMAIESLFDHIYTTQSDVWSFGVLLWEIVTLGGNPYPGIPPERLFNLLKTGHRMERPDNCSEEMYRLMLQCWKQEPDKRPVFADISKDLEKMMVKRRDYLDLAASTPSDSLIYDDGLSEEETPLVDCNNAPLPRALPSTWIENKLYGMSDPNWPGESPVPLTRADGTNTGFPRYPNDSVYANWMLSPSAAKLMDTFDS
The experiment in a line: RET kinase screening assay (33P-ATP FlashPlate).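 Also: biotinylated peptide substrate captured on streptavidin FlashPlate, 33P phosphate transfer read by scintillation counting, 1% DMSO, lower incorporation means inhibition, percent relative to per-plate maximum and minimum signals.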 The settings on record: human RET kinase domain; 10 μM ATP; 1 hr at 30° C. Format: biochemical.

The target of a further experiment is T2, Aurora-A (Mus musculus, UniProt P97477).
T2 construct: polyhistidine (N)
T2 sequence (P97477 1-395): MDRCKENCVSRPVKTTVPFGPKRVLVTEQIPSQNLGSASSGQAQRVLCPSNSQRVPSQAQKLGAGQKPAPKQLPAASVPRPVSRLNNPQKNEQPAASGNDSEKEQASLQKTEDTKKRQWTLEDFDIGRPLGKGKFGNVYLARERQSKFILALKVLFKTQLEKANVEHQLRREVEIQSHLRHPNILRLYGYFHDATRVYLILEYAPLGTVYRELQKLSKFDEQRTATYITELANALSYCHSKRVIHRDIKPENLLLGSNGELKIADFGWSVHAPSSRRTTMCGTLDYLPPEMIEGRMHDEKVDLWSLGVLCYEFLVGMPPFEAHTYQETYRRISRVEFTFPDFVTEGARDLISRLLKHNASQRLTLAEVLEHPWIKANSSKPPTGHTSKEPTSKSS
The experiment in a line: Aurora-A kinase screening assay (33P-ATP FlashPlate).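 Also: His-tagged mouse Aurora-A phosphorylating a biotinylated peptide captured on streptavidin plates, read as 33P uptake by scintillation counting, 1% DMSO, inhibition scaled between per-plate maximum and minimum signals.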 The conditions noted are these: 10 μM ATP, 1 hr at 30° C. Format: biochemical.

Another experiment relates to A375 malignant melanoma. In words: Cell Proliferation Inhibition Assay (14C-thymidine incorporation), A375.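 Also: proliferation measured by radiolabelled thymidine uptake into new DNA, counted in scintillating 96-well plates, compound-treated wells compared with DMSO-only control wells.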 It counts as cell-based. The conditions noted are these: Homo sapiens, A-375, A375 cells.
The subject of the next experiment is HCT-116 colon carcinoma. The experiment in a line: Cell Proliferation Inhibition Assay (14C-thymidine incorporation), HCT-116.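 Also: proliferation measured as methyl 14C-thymidine uptake into new DNA, counted in 96-well scintillating microplates, compared with DMSO-only control wells.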 Format: cell-based. The conditions noted are these: Homo sapiens, HCT-116, HCT-116 cells.
In a further experiment the target is T3, CDK1 (Homo sapiens, UniProt P06493).
T3 construct: purchased New England Biolabs, Beverly, Mass; 6020; host or cells: insect cells
In words: CDK-1 kinase screening assay (33P-ATP FlashPlate). The conditions noted are these: human CDK1 with cyclin B; 10 μM ATP; 1 hr at 30° C. Format: biochemical. The protocol:
A kinase reaction mixture was prepared containing 50 mM Tris-HCl pH=8, 10 mM MgCl2, 0.1 mM […], 1 mM DTT, 10 μM ATP, 0.025 μM biotinylated histone-H1 peptide substrate and 0.2 μCuries per well ^33P-γ-ATP (2000-3000 Ci/mmol). 70 μL of the kinase reaction mixture was dispensed into the well of a streptavidin coated FlashPlate™ (Cat. # SMP103, NEN, Boston, Mass.).
Test compound stock in 100% DMSO (1 μL) was added to the wells resulting in a final concentration of 1% DMSO in the reaction with a 100 μL final reaction volume. Each enzyme was diluted in 50 mM Tris-HCl pH=8.0, 0.11% BSA and 30 μL was added to each well to initiate the reaction. The reaction was incubated for one hour at 30° C. At the end of the 1 hr incubation, the reaction was terminated by aspirating the mixture from the plate and washing the wells twice with PBS containing 100 mM EDTA. The biotinylated peptide substrate became immobilized on the Flashplate™ and the incorporation of ^33P-γ-ATP was measured by reading the plate on a scintillation counter. Inhibition of the enzymatic activity was measured by observing a reduced amount of ^33P-γ-ATP incorporated into the immobilized peptide.
The CDK1 enzyme was isolated from insect cells expressing both the human CDK1 catalytic subunit (Accession number NM_001786) and its positive regulatory subunit cyclin B (New England Biolabs, Beverly, Mass.; Cat. # 6020). The assay used 30 ng of the N-terminal biotinylated peptide biotin-[…]-amide (Cyclin dependent kinase 1) per well.
A maximum and minimum signal for the assay was determined on each plate. The percent inhibition of a test compound was calculated according to the formula: […]
For a series of test concentrations, the IC50 was derived by graphing percent inhibition against the log of the concentrations tested for a given compound with results shown in Table 1.
For compounds with multiple values, each value represents a separate assay result.

Another experiment addresses T4, VEGF-R2 (Rattus norvegicus, UniProt O08775).
T4 construct: polyhistidine (N)
The experiment in a line: VEGF-R2 kinase screening assay (33P-ATP FlashPlate).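 Also: Read-out is ³³P incorporation from ³³P-γ-ATP into biotinylated peptide substrate captured on streptavidin FlashPlate, counted by scintillation, 1% DMSO final, inhibition scaled between per-plate maximum and minimum signals.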 It counts as biochemical. The conditions noted are these: rat VEGF-R2 kinase domain; 10 μM ATP; 1 hr at 30° C.

A further experiment has as its target T5, HER2 (Homo sapiens, UniProt P04626).
T5 construct: GST (Glutathione-S-Transferase) (N); HIS6 (N); thrombin cleavage site (N); purchased Proqinase, Freiburg, Germany
The experiment in a line: HER2 kinase screening assay (33P-ATP FlashPlate).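 Also: Biotin-poly(GT) 4:1 peptide captured on streptavidin FlashPlate, 33P transfer from γ-ATP read by scintillation counting, lower incorporation means inhibition, 1% DMSO final, 100 µL reaction.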 Format: biochemical. The settings on record: GST-HIS6 HER-2 aa 679 to 1255; 10 μM ATP; 1 hr at 30° C.

T4 sequence (O08775 786-1343): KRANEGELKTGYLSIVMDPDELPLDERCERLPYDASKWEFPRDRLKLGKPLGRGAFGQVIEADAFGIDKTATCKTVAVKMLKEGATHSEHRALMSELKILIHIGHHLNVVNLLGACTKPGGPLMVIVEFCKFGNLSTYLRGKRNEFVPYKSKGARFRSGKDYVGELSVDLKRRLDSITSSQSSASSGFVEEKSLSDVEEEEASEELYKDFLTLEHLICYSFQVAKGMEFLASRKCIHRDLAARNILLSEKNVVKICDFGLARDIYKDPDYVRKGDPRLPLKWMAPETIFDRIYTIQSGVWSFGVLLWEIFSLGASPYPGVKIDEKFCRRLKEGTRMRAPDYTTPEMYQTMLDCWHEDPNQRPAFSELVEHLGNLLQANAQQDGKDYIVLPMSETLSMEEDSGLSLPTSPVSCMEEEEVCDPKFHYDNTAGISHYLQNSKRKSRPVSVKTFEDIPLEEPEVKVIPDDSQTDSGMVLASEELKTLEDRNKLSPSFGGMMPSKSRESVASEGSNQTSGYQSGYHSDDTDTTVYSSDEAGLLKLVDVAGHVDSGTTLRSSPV
T5 sequence (P04626 679-1255): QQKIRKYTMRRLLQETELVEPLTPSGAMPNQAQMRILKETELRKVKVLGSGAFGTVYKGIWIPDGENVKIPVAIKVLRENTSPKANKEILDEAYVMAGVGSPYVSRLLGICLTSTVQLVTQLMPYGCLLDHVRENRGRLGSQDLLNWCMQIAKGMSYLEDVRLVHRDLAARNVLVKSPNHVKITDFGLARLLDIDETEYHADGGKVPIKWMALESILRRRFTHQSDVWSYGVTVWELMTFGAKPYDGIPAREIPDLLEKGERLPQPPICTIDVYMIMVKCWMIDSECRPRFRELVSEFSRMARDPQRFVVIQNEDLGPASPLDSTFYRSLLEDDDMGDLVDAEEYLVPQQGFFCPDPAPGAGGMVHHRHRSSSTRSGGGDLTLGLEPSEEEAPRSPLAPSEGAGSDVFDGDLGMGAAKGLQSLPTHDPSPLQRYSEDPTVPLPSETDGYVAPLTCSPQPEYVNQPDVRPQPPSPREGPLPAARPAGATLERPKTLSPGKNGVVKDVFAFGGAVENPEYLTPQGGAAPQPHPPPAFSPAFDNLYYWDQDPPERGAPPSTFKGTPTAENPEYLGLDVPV
T3 sequence (P06493 whole entry): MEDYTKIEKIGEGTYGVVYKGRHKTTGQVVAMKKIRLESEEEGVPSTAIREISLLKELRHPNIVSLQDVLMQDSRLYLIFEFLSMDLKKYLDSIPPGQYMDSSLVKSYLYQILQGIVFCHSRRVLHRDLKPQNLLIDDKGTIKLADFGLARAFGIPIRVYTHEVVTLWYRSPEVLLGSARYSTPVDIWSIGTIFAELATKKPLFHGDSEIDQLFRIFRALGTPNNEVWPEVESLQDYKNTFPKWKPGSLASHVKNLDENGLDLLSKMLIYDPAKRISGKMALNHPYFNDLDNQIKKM
T3 sequence (P14635 whole entry partner): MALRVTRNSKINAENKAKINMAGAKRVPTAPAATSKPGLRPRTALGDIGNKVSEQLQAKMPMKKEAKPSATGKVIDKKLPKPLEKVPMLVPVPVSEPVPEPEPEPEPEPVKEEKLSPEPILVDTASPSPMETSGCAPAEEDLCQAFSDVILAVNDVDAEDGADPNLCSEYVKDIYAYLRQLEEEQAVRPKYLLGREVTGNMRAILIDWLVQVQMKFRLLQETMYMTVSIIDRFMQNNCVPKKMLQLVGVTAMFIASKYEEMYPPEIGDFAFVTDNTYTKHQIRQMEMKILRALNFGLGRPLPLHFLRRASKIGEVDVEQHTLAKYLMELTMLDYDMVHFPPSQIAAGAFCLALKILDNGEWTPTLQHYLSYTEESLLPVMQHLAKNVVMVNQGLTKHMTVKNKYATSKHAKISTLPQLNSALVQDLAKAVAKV

In the case of `COCc1cccc2[nH]c(-c3n[nH]c4ncc(-c5cncc6ccccc56)cc34)nc12` [Cpd 4, 4-[3-(4-methoxymethyl-1H-benzoimidazol-2-yl)-1H-pyrazolo[3,4-b]pyridin-5-yl]-isoquinoline], the concentration for half-maximal inhibition (IC50) in experiment [1] was 14.8 nM; against RET, greater than 10000 nM; against Aurora-A, 324 nM; in the experiment with A375 malignant melanoma it was 10.1 nM; in the experiment with HCT-116 colon carcinoma, 10.1 nM; at CDK1, 5.61 nM. Further, the IC50 against VEGF-R2 turned out to be 461 nM; at HER2 it was 85.1 nM.

With `CCN(CC)Cc1cccc2[nH]c(-c3n[nH]c4ncc(Br)cc34)nc12` [Cpd 6, [2-(5-bromo-1H-pyrazolo[3,4-b]pyridin-3-yl)-1H-benzoimidazol-4-ylmethyl]-diethyl-amine], the IC50 is 354 nM in experiment [1]; greater than 10000 nM on RET; 975 nM at Aurora-A; 255 nM in the experiment with A375 malignant melanoma; 259 nM with HCT-116 colon carcinoma; 77.6 nM on CDK1. In addition, the 50% inhibitory concentration (IC50) on VEGF-R2 is 952 nM; at HER2, 89.4 nM.

For the compound `CC(C)NCc1cccc2[nH]c(-c3n[nH]c4ncc(-c5cncc6ccccc56)cc34)nc12` [Cpd 13, isopropyl-[2-(5-isoquinolin-4-yl-1H-pyrazolo[3,4-b]pyridin-3-yl)-1H-benzoimidazol-4-ylmethyl]-amine], the IC50 in experiment [1] was 134 nM; against RET, greater than 100000 nM; at Aurora-A it was 3620 nM; with A375 malignant melanoma, 140 nM; in the experiment with HCT-116 colon carcinoma it was 109 nM; against CDK1 it was 12.8 nM. The results for the IC50 at VEGF-R2 and against HER2 were roughly 1000 nM and greater than 100000 nM, respectively.

As for `COCCOCc1cccc2[nH]c(-c3n[nH]c4ncc(-c5cncc6ccccc56)cc34)nc12` [Cpd 14, 4-{3-[4-(2-methoxy-ethoxymethyl)-1H-benzoimidazol-2-yl]-1H-pyrazolo[3,4-b]pyridin-5-yl}-isoquinoline], the IC50 is 1000 nM in experiment [1]; roughly 100000 nM at RET; greater than 1000 nM against Aurora-A; 649 nM in the experiment on A375 malignant melanoma; 312 nM with HCT-116 colon carcinoma; 72.1 nM at CDK1. In addition, the concentration for half-maximal inhibition (IC50) on VEGF-R2 is 4570 nM; against HER2 it was greater than 100000 nM.

Regarding `c1ccc2c(-c3cnc4[nH]nc(-c5nc6c(COCCN7CCOCC7)cccc6[nH]5)c4c3)cncc2c1` [Cpd 15, 4-{3-[4-(2-morpholin-4-yl-ethoxymethyl)-1H-benzoimidazol-2-yl]-1H-pyrazolo[3,4-b]pyridin-5-yl}-isoquinoline], the half-maximal inhibitory concentration (IC50) in experiment [1] came to 8520 nM; against RET, 929 nM; against Aurora-A, 2270 nM; in the experiment on A375 malignant melanoma it was 7610 nM; in the experiment on HCT-116 colon carcinoma, 5820 nM; at CDK1 it was 33 nM. For the same compound, the IC50 against VEGF-R2 was roughly 1000 nM; at HER2 it was roughly 100000 nM.

For the compound `CCOCCOCc1cccc2[nH]c(-c3n[nH]c4ncc(-c5cncc6ccccc56)cc34)nc12` [Cpd 16, 4-{3-[4-(2-ethoxy-ethoxymethyl)-1H-benzoimidazol-2-yl]-1H-pyrazolo[3,4-b]pyridin-5-yl}-isoquinoline], the IC50 in experiment [1] was 632 nM; at RET, greater than 1000 nM; at Aurora-A it was greater than 1000 nM; in the experiment on A375 malignant melanoma, 910 nM; in the experiment on HCT-116 colon carcinoma, 237 nM; on CDK1, 65.5 nM. Also, the IC50 was 60.7 nM against VEGF-R2 and greater than 100000 nM on HER2.

Consider `O=C(O)c1cccc2[nH]c(-c3n[nH]c4ncc(-c5cncc6ccccc56)cc34)nc12` [Cpd 17, 2-(5-isoquinolin-4-yl-1H-pyrazolo[3,4-b]pyridin-3-yl)-1H-benzoimidazole-4-carboxylic acid], for which the IC50 in experiment [1] was greater than 10000 nM; against RET it was greater than 100000 nM; against Aurora-A it was greater than 10000 nM; in the experiment on A375 malignant melanoma it was greater than 10000 nM; in the experiment with HCT-116 colon carcinoma it was greater than 10000 nM; at CDK1 it was 541 nM. In addition, the IC50 was greater than 10000 nM on VEGF-R2 and greater than 100000 nM against HER2.

Take `O=C(c1cccc2[nH]c(-c3n[nH]c4ncc(-c5cncc6ccccc56)cc34)nc12)N1CCCC1` [Cpd 21, [2-(5-isoquinolin-4-yl-1H-pyrazolo[3,4-b]pyridin-3-yl)-1H-benzoimidazole-4-yl]-pyrrolidin-1-yl-methanone]: the concentration for half-maximal inhibition (IC50) in experiment [1] was 804 nM; against RET, greater than 10000 nM; against Aurora-A, 4830 nM; with A375 malignant melanoma it was 472 nM; in the experiment on HCT-116 colon carcinoma, 899 nM; at CDK1, 162 nM. The concentration for half-maximal inhibition (IC50) was 2790 nM at VEGF-R2 and greater than 10000 nM on HER2.

Regarding `O=C(c1cccc2[nH]c(-c3n[nH]c4ncc(-c5cncc6ccccc56)cc34)nc12)N1CCCCC1` [Cpd 22, [2-(5-isoquinolin-4-yl-1H-pyrazolo[3,4-b]pyridin-3-yl)-1H-benzoimidazol-4-yl]-piperidin-1-yl-methanone], the concentration for half-maximal inhibition (IC50) in experiment [1] is 594 nM; on RET, roughly 100000 nM; against Aurora-A, 1990 nM; with A375 malignant melanoma it was 188 nM; in the experiment with HCT-116 colon carcinoma, 554 nM; against CDK1, 137 nM. The 50% inhibitory concentration (IC50) against VEGF-R2 is 2120 nM; against HER2 it was greater than 10000 nM.

As for `CN1CCN(C(=O)c2cccc3[nH]c(-c4n[nH]c5ncc(-c6cncc7ccccc67)cc45)nc23)CC1` [Cpd 23, [2-(5-isoquinolin-4-yl-1H-pyrazolo[3,4-b]pyridin-3-yl)-1H-benzoimidazole-4-yl]-(4-methyl-piperazin-1-yl)-methanone], the IC50 in experiment [1] was 6580 nM; against RET it was greater than 100000 nM; against Aurora-A it was 10900 nM; with A375 malignant melanoma, 2760 nM; with HCT-116 colon carcinoma, 3170 nM; against CDK1 it was 1630 nM. The figures for the IC50 against VEGF-R2 and against HER2 were 6930 nM and greater than 10000 nM, respectively.

With `O=C(c1cccc2[nH]c(-c3n[nH]c4ncc(-c5cncc6ccccc56)cc34)nc12)N1CCOCC1` [Cpd 24, [2-(5-isoquinolin-4-yl-1H-pyrazolo[3,4-b]pyridin-3-yl)-1H-benzoimidazole-4-yl]-morpholin-4-yl-methanone], the IC50 in experiment [1] was 460 nM; on RET, roughly 100000 nM; at Aurora-A it was 2790 nM; with A375 malignant melanoma, 490 nM; in the experiment with HCT-116 colon carcinoma, 743 nM; on CDK1 it was 42 nM. In addition, the IC50 on VEGF-R2 is 4620 nM; on HER2, greater than 10000 nM.

As usually defined, the IC50 is the concentration at which inhibition is half-maximal. Read a high IC50 as lower potency.

For the origin of these results see patent US7541367B2, “3-benzoimidazolyl-pyrazolopyridines useful in treating kinase disorders” (Janssen Pharmaceutica, N.V., priority 2005, dated 2009).
